In PubChem BioAssay AID248 (DTP/NCI, 2004):
Where “and” joins values, the source holds several entries; their conditions need not be identical. Equal values may be shown once. Toxic doses and inconclusive results are not listed. Rule as the data show it: active = T/C of 150% or more; inactive = T/C below 125%.

Test system: L1210 leukemia ip in BDF1 mice, survival T/C
Assay: NCI In Vivo Anticancer Drug Screen. Data for tumor model L1210 Leukemia (intraperitoneal) in B6D2F1 (BDF1) mice
Conditions: endpoint: mean survival time, higher = longer survival
Method in brief: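 Tumor was transplanted into mice, which were then dosed with test compound or vehicle alone. Survival was recorded for each group, and the treated figure was expressed relative to the control figure.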

[1] = dose: 12.5 mg/kg/injection, schedule: Q01DX009 (ip), vehicle: saline
[2] = dose: 25.0 mg/kg/injection, schedule: Q01DX009 (ip), vehicle: saline
[3] = dose: 50.0 mg/kg/injection, schedule: Q01DX009 (ip), vehicle: saline
[4] = dose: 25.0 mg/kg/injection, schedule: Q01DX009 (ip), vehicle: Klucel (hydroxypropylcellulose) (HPC)
[5] = dose: 25.0 mg/kg/injection, schedule: Q04DX002 (ip), vehicle: Klucel (hydroxypropylcellulose) (HPC)
[6] = dose: 50.0 mg/kg/injection, schedule: Q01DX009 (ip), vehicle: Klucel (hydroxypropylcellulose) (HPC)
[7] = dose: 50.0 mg/kg/injection, schedule: Q04DX002 (ip), vehicle: Klucel (hydroxypropylcellulose) (HPC)
[8] = dose: 100.0 mg/kg/injection, schedule: Q01DX009 (ip), vehicle: Klucel (hydroxypropylcellulose) (HPC)
[9] = dose: 100.0 mg/kg/injection, schedule: Q04DX002 (ip), vehicle: Klucel (hydroxypropylcellulose) (HPC)
[10] = dose: 50.0 mg/kg/injection, schedule: Q01DX001 (ip), vehicle: saline
[11] = dose: 100.0 mg/kg/injection, schedule: Q01DX001 (ip), vehicle: saline
[12] = dose: 200.0 mg/kg/injection, schedule: Q01DX001 (ip), vehicle: saline
[13] = dose: 400.0 mg/kg/injection, schedule: Q01DX001 (ip), vehicle: saline
[14] = dose: 100.0 mg/kg/injection, schedule: Q04DX003 (ip), vehicle: Klucel (hydroxypropylcellulose) (HPC)
[15] = dose: 200.0 mg/kg/injection, schedule: Q04DX003 (ip), vehicle: Klucel (hydroxypropylcellulose) (HPC)
[16] = dose: 100.0 mg/kg/injection, schedule: Q01DX009 (ip), vehicle: saline with Tween-80
[17] = dose: 200.0 mg/kg/injection, schedule: Q01DX009 (ip), vehicle: saline with Tween-80
[18] = dose: 200.0 mg/kg/injection, schedule: Q01DX009 (ip), vehicle: Klucel (hydroxypropylcellulose) (HPC)
[19] = dose: 400.0 mg/kg/injection, schedule: Q01DX009 (ip), vehicle: Klucel (hydroxypropylcellulose) (HPC)
[20] = dose: 200.0 mg/kg/injection, schedule: Q04DX002 (ip), vehicle: Klucel (hydroxypropylcellulose) (HPC)
[21] = dose: 400.0 mg/kg/injection, schedule: Q04DX002 (ip), vehicle: Klucel (hydroxypropylcellulose) (HPC)

Measured: T/C

CCC(C)C(CCCCN1CCCC1)(CNC(=O)CN(CC)CC)c1cccc2ccccc12 (stereo not given)
inactive: [1] 95 % of control | dose: 12.5 mg/kg/injection, schedule: Q04DX003 (ip), vehicle: saline 92 % of control | [2] 101 % of control | dose: 25.0 mg/kg/injection, schedule: Q04DX003 (ip), vehicle: saline 93 % of control | [3] 106 % of control | dose: 50.0 mg/kg/injection, schedule: Q04DX003 (ip), vehicle: saline 92 % of control

CCCCC/C=C/C/C=C/CCCCCCCC(=O)N1CCOCC1
inactive: dose: 100.0 mg/kg/injection, schedule: Q01DX001 (ip), vehicle: saline with Tween-80 94 % of control | dose: 200.0 mg/kg/injection, schedule: Q01DX001 (ip), vehicle: saline with Tween-80 96 % of control | dose: 400.0 mg/kg/injection, schedule: Q01DX001 (ip), vehicle: saline with Tween-80 97 % of control

COc1ccc(OC)c(NC(=O)CCl)c1
inactive: [4] 96 % of control | [5] 96 % of control | [6] 98 % of control | [7] 93 % of control | [8] 89 % of control and 90 % of control | [9] 93 % of control and 106 % of control

NCC(S)c1ccc(Cl)cc1 (stereo not given)
inactive: [1] 114 % of control | [2] 101 % of control | [3] 97 % of control

CCCCCCCCCCCCCCCCCC(=O)C(C(=O)OCC)C(=O)OCC
inactive: dose: 100.0 mg/kg/injection, schedule: Q01DX001 (ip), vehicle: other 93 % of control | dose: 200.0 mg/kg/injection, schedule: Q01DX001 (ip), vehicle: other 88 % of control | dose: 400.0 mg/kg/injection, schedule: Q01DX001 (ip), vehicle: other 90 % of control

CN(C)c1ccnc(N(C)C)n1
inactive: dose: 16.0 mg/kg/injection, schedule: Q01DX Z (ip), vehicle: methylcellulose (MC) 96 % of control | dose: 31.0 mg/kg/injection, schedule: Q01DX Z (ip), vehicle: methylcellulose (MC) 98 % of control

CC(C)C1N=C(N)N=C(N)N1c1ccc(Cl)c(Cl)c1 (stereo not given)
inactive: dose: 75.0 mg/kg/injection, schedule: Q01DX001 (ip), vehicle: saline 105 % of control | dose: 150.0 mg/kg/injection, schedule: Q01DX001 (ip), vehicle: saline 96 % of control

CC(=O)OCC1OC(n2cnc([N+](=O)[O-])c2C#N)C(OC(C)=O)C1OC(C)=O (stereo not given)
inactive: [10] 102 % of control | [11] 108 % of control | [12] 102 % of control | [13] 92 % of control

O=C(NCCCl)NN1CCCCC1
inactive: dose: 50.0 mg/kg/injection, schedule: Q04DX003 (ip), vehicle: Klucel (hydroxypropylcellulose) (HPC) 113 % of control | [14] 113 % of control | [15] 113 % of control

Cc1nccn1C(/C(=N/O)c1ccccc1)c1ccccc1 (stereo not given)
inactive: [16] 96 % of control | [17] 96 % of control | dose: 400.0 mg/kg/injection, schedule: Q01DX009 (ip), vehicle: saline with Tween-80 94 % of control

CCCCC(CC)COC(=O)CC(O)C(=O)OCC(CC)CCCC (stereo not given)
inactive: [8] 103 % of control | [18] 100 % of control | [19] 103 % of control

COC1=CC(C)(C)c2ccccc2C1=O
inactive: dose: 50.0 mg/kg/injection, schedule: Q01DX009 (ip), vehicle: saline sonified 97 % of control | dose: 100.0 mg/kg/injection, schedule: Q01DX009 (ip), vehicle: saline sonified 99 % of control | [14] 97 % of control | dose: 200.0 mg/kg/injection, schedule: Q01DX009 (ip), vehicle: saline sonified 97 % of control | [15] 115 % of control | dose: 400.0 mg/kg/injection, schedule: Q04DX003 (ip), vehicle: Klucel (hydroxypropylcellulose) (HPC) 97 % of control

CCCCCCC(=O)/C=C/c1ccc(N(C)C)cc1
inactive: dose: 100.0 mg/kg/injection, schedule: Q01DX001 (sc), vehicle: steriod suspending solution 97 % of control | dose: 100.0 mg/kg/injection, schedule: Q04DX003 (sc), vehicle: steriod suspending solution 105 % of control | dose: 200.0 mg/kg/injection, schedule: Q01DX001 (sc), vehicle: steriod suspending solution 105 % of control | dose: 200.0 mg/kg/injection, schedule: Q04DX003 (sc), vehicle: steriod suspending solution 103 % of control | dose: 400.0 mg/kg/injection, schedule: Q01DX001 (sc), vehicle: steriod suspending solution 97 % of control | dose: 400.0 mg/kg/injection, schedule: Q04DX003 (sc), vehicle: steriod suspending solution 102 % of control

COc1ccc(Cl)cc1NC(=O)COc1cc(Cl)c(Cl)cc1Cl
inactive: dose: 50.0 mg/kg/injection, schedule: Q01DX009 (ip), vehicle: saline with Tween-80 101 % of control | [16] 96 % of control | [17] 104 % of control

CCCCN(CCCC)CC(O)c1cc(OC)c2cc(Cl)cc(Cl)c2n1 (stereo not given)
inactive: dose: 100.0 mg/kg/injection, schedule: Q04DX003 (ip), vehicle: saline with Tween-80 98 % of control | dose: 200.0 mg/kg/injection, schedule: Q04DX003 (ip), vehicle: saline with Tween-80 91 % of control | dose: 400.0 mg/kg/injection, schedule: Q04DX003 (ip), vehicle: saline with Tween-80 94 % of control

ClCCOc1ccccc1
inactive: [11] 95 % of control | [12] 101 % of control

Clc1cnc(C(Cl)(Cl)Cl)c(Cl)n1 (tested in a mixture with another compound)
inactive: dose: 12.5 mg/kg/injection, schedule: Q01DX009 (ip), vehicle: Klucel (hydroxypropylcellulose) (HPC) 94 % of control | [4] 97 % of control | [6] 100 % of control

CC(=O)OCCn1c([N+](=O)[O-])cnc1/C=[N+](\[O-])C1CCCCC1
inactive: [9] 107 % of control | [20] 100 % of control | [21] 103 % of control

CCCCCCCCC1OC1CCCCCCCC(=O)O (stereo not given)
inactive: [5] 108 % of control | [10] 90 % of control | [7] 101 % of control | [11] 97 % of control | [9] 101 % of control | [12] 101 % of control | [13] 90 % of control

BrC1(Br)C23CC=CCC12CCCC3 (stereo not given)
inactive: dose: 100.0 mg/kg/injection, schedule: Q04DX003 (ip), vehicle: saline 95 % of control | dose: 200.0 mg/kg/injection, schedule: Q04DX003 (ip), vehicle: saline 100 % of control | dose: 400.0 mg/kg/injection, schedule: Q04DX003 (ip), vehicle: saline 105 % of control

N#C/C(C(N)=O)=C1\CCCc2sccc21
inactive: [11] 102 % of control | [12] 95 % of control

OCc1cc2ccccc2c2ccccc12
inactive: dose: 222.0 mg/kg/injection, schedule: Q01DX Z (ip), vehicle: carboxymethylcellulose (CMC) 96 % of control | dose: 330.0 mg/kg/injection, schedule: Q01DX Z (ip), vehicle: carboxymethylcellulose (CMC) 90 % of control | dose: 500.0 mg/kg/injection, schedule: Q01DX Z (ip), vehicle: carboxymethylcellulose (CMC) 93 % of control | dose: 750.0 mg/kg/injection, schedule: Q01DX Z (ip), vehicle: carboxymethylcellulose (CMC) 88 % of control

Nc1nc2nc(N=Nc3ccc(C(=O)O)c(O)c3)[nH]c2c(=O)[nH]1
inactive: [14] 99 % of control | [15] 88 % of control

CCOC(=O)C12CCC(=O)CC1(O)CCC1(C2)OCCCO1 (stereo not given)
inactive: dose: 100.0 mg/kg/injection, schedule: Q## X003 (ip), vehicle: saline 98 % of control | dose: 200.0 mg/kg/injection, schedule: Q## X003 (ip), vehicle: saline 104 % of control | dose: 400.0 mg/kg/injection, schedule: Q## X003 (ip), vehicle: saline 102 % of control

CC(=O)NC(C)c1ccccc1 (stereo not given)
inactive: [7] 108 % of control | dose: 75.0 mg/kg/injection, schedule: Q01DX009 (ip), vehicle: Klucel (hydroxypropylcellulose) (HPC) 96 % of control | [9] 108 % of control | dose: 150.0 mg/kg/injection, schedule: Q01DX009 (ip), vehicle: Klucel (hydroxypropylcellulose) (HPC) 89 % of control | [20] 108 % of control | dose: 300.0 mg/kg/injection, schedule: Q01DX009 (ip), vehicle: Klucel (hydroxypropylcellulose) (HPC) 100 % of control | [21] 111 % of control

CCOC(=O)c1ccc(NC(=O)Oc2ccccc2OCC)cc1
inactive: [8] 97 % of control | [18] 95 % of control | [19] 90 % of control
